According to patent publication US11046745B2, “Peptide mimotopes of the CD3 T-cell co-receptor epsilon chain and uses thereof” (BioNTech SE, priority 2015, dated 2021):
pKd: −log10 of the molar value. Positions of bridges follow the written chain, without caps; N, C: chain ends. Residues, ends and D or L forms follow the SMILES beside them. *: point of attachment. Biotin = O=C1N[C@H]2[C@H](CS[C@H]2CCCCC(=O)*)N1

Assays:
[1] = system: TR66 antibody (CD3ε specific antibody, clone TR66); test: Binding analysis using biolayer interferometry (BLI), Octet Red, biotinylated peptides on streptavidin sensors; conditions: 500 nM TR66 antibody, one concentration
Procedure: FIG. 5. Comparative binding analysis of matured TR66 mimotopes aCD3-04-002 and aCD3-04-013 using biolayer interferometry (BLI) on an Octet Red system (fortéBIO). Biotinylated peptides were immobilized onto streptavidin (SA) sensors. After blocking with 1× blocking buffer and biocytin association and dissociaten rates of TR66 binding were recorded over a period of 2400 sec respectively. The antibody was used in a range of 1.5625 to 100 nM (1.5625, 3.125, 6.25, 12.5, 25, 50, 100 nM) for each analyzed peptide.
Binding analysis was performed using streptavidin (SA) sensors on an Octet Red system (fortéBIO). 5 μg/ml of biotinylated peptides were used for loading (200 μl per sensor). […] Remained biotin binding sites on coated streptavidin sensors were blocked using 100 μg/ml biocytin (Sigma-Aldrich) for 5 minutes. For binding mode analysis of different peptides 500 nM TR66 antibody was used in the association step. For detailed analysis the antibody was used in a range of 1.5625 to 100 nM (1.5625, 3.125, 6.25, 12.5, 25, 50, 100 nM) for each analyzed peptide. The following program was used: • Baseline: 1000 rpm for 180 sec. • Load: 1000 rpm for 900 sec. • Baseline: 1000 rpm for 180 sec. • Blocking: 1000 rpm for 300 sec. • Association: 1000 rpm for 1200-2400 sec. • Dissociation: 1000 rpm for 1200-2400 sec.
The peptides displaying the highest binding affinities from the peptide microarray experiments were synthesized by standard Fmoc-based solid-phase-synthesis protocols and purified (HPLC purity: >80%). The binding characteristics of each peptide were determined. In the first instance all peptides were analysed via biolayer interferometry (BLI) to get a first impression whether the respective variant has a significant binding property at all (yes/no binding, Table 2). At his point, only one TR66 concentration (500 nM) was tested. Except variants aCD3-04-010 and aCD3-04-012 all peptides show a measurable binding activity.

[2] = target: TR66 antibody (CD3ε specific antibody, clone TR66); test: Binding analysis using peptide ELISA, biotinylated peptides on streptavidin plates, TR66
Procedure: FIG. 3. Binding analysis of phage derived variants using a peptide based ELISA. Biotinylated peptides were immobilized on streptavidin plates (Nunc) in a concentration of 0.75 μg/ml. After blocking 30 μg/ml TR66 or an unrelated antibody (control ab) were added and incubated for 1 h at 37° C. Binding was detected with an alkaline phosphatase conjugated goat anti-human IgG antibody (Sigma) and the chromogenic substrate PNPP (para-nitrophenyl phosphate). All reactions were performed as duplicates. SD values are presented as error bars.
For the detection of TR66 or OKT3 (Bio-X-Cell), the CD3 mimicking peptides were immobilized on streptavidin plates (Nunc) in a concentration of 0.75 μg/ml in PBS buffer for 1 hour at 37° C. Subsequently, the plate was washed three times with washing buffer (0.01% Tween-20 in PBS buffer) before it was blocked with 3% BSA in PBS overnight at 4° C. To detect TR66 or OKT3, the blocked plate was washed again three times with washing buffer followed by the addition of TR66 or OKT3 and incubation for 30 min at 37° C. After another washing step, it was incubated with an alkaline phosphatase conjugated Goat anti-human or anti-mouse IgG, Fe antibody (Jackson Immuno Research) for additional 30 min at 37° C. Finally, the plate was washed again before being incubated with 1.5 mg/ml of the substrate PNPP (para-nitrophenyl phosphate) in appropriate substrate buffer (1 M Diethanolamine, 0.05 mM MgCl2, 0.01% sodium azide, pH 9.8) for 30 min at RT in the dark. 3 M KOH was used to stop the enzymatic reaction. Absorbance was measured with a microplate reader (Infinite M200, Tecan). For dual wavelength analysis, 405 nm was chosen as measurement wavelength and 492 nm as reference wavelength. Absorbance values were calculated by subtraction of the measured values for the reference wavelength and for the measurement wavelength. Calculation of apparent KD values was done by fitting the data with Sigma Plot 10 using a two-site saturation binding model.

[3] = system: TR66 antibody; test: Peptide microarray incubated with TR66, fluorescently labelled secondary antibody; type: binding; conditions: cyclic peptide immobilized through C-terminus; 1.0 μg/ml TR66; data not shown
Procedure: Peptides were synthesized and printed on peptide-microarray slides essentially as described previously (Funkner, A. et al., J. Mol. Biol. 425, 1340-1362 (2013)). In brief, the peptides were synthesized using SPOT synthesis (Wenschuh, H. et al., Biopolymers 55, 188-206 (2000)) cleaved from the solid support and cyclized (50% DMSO, PBS buffer pH 7-8, RT, 16 hours). Subsequently, all peptides were chemoselectively immobilized on functionalized glass slides as described earlier (Schnatbaum, K. et al., Biotechnol. J. 9, 545-554 (2014); Funkner, A. et al., J. Mol. Biol. 425, 1340-1362 (2013)). Each peptide was deposited on the microarray in triplicates.
The microarrays were incubated with 1.0 or 0.1 μg/ml TR66 in an HS 4800 microarray processing station (Tecan) for two hours at 30° C., followed by incubation with 1.0 μg/ml fluorescently labelled secondary antibody (Alexa647 anti-human Fe antibody; Jackson Immuno Research). Washing steps were performed prior every incubation step with 0.1% Tween-20 in 1×TBS. After the final incubation step the microarrays were washed (0.05% Tween-20 in 0.1×SSC) and dried in a stream of nitrogen. Each microarray was scanned using a GenePix Autoloader 4200AL (Molecular Devices, Pixel size: […]). Signal intensities were evaluated using GenePix Pro 7.0 analysis software (Molecular Devices). For each peptide, the mean of the three triplicates was calculated. […]

## C[C@H](N)C(=O)N[C@H]1CSSC[C@@H](C(=O)NCC(=O)NCC(=O)NCC(=O)N[C@@H](CO)C(=O)N[C@@H](CCCCNC(=O)CCCC[C@@H]2SC[C@@H]3NC(=O)N[C@@H]32)C(=O)O)NC(=O)[C@H](CCC(N)=O)NC(=O)[C@@H]2CCCN2C(=O)[C@H](CC(=O)O)NC(=O)CNC(=O)[C@@H]2CCCN2C(=O)[C@H](CCCNC(=N)N)NC(=O)[C@H]([C@@H](C)O)NC1=O [aCD3 C7C-4, ACTRPGDPQC-GGGS-K(Bio)] (H-ACTRPGDPQCGGGSK(Biotin)-OH; disulfide 2-10)
[1]
  Yes/no binding, BLI: Yes
[2]; TR66, mean of at least two individual measurements, two-site saturation binding model, read-out: Apparent KD, ELISA
  pKd: 6.43
[2]; peptide 0.75 μg/ml, 30 μg/ml TR66
  TR66 binding after chemical synthesis, ELISA-based binding analysis (FIG. 3): could be verified
[3]
  TR66 binding on peptide microarray: strong binding
